According to ChEMBL document CHEMBL1201862, “PubChem BioAssay data set” (2004):
Calls of active or inactive are those of the source.

Assays:
[1] = viability loss in human Jurkat cells – cell-based, luminescence, cytotoxicity control for P. falciparum gametocyte viability project, dose response (AID 1117277); format: functional;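 further: potency reflects loss of cellular ATP meaning fewer viable cells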
[2] = viability inhibitors of stage V gametocytes – luminescence, dose response (AID 1117278); format: functional, cell-based;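 further: gametocytes exposed to compound for 24 hours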
[3] = target: Bifunctional protein GlmU (Mycobacterium tuberculosis, UniProt P9WMN3); experiment: Inhibitors of Mycobacterial Glucosamine-1-phosphate acetyl transferase (GlmU). Secondary screen.; design: species or system Mycobacterium tuberculosis H37Rv
Sequence of Bifunctional protein GlmU (P9WMN3 whole entry): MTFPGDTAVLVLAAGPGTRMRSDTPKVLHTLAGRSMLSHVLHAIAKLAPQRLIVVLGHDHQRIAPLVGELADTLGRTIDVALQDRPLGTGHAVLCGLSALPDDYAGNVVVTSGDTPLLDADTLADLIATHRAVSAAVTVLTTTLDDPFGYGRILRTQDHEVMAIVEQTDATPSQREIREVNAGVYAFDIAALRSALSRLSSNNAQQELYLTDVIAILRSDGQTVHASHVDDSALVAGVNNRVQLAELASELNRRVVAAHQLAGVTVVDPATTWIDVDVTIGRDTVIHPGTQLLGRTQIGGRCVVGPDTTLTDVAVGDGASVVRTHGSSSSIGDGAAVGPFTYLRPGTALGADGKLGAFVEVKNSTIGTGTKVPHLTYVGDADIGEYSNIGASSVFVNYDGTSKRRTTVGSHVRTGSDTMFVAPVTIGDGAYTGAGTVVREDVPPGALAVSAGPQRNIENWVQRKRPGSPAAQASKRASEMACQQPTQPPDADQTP

[4] = target: Sphingosine 1-phosphate receptor 2 (Homo sapiens, UniProt O95136); experiment: Dose Response Cell Based Assay for Antagonists of the S1P2 Receptor. [Related pubchem assays: 856, 736 ]; format: functional
Sequence of Sphingosine 1-phosphate receptor 2 (O95136 whole entry): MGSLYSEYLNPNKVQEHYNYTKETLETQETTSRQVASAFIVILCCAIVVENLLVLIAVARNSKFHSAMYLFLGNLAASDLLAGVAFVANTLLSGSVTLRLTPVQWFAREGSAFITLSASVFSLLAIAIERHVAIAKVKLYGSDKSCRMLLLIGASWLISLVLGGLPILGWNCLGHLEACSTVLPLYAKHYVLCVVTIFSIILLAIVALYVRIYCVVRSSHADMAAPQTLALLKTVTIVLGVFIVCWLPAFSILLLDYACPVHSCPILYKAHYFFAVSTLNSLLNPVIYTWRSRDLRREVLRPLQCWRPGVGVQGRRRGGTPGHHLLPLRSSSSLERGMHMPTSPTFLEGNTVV

[5] = target: Mitogen-activated protein kinase 10 (Homo sapiens, UniProt P53779); experiment: Dose response biochemical screening assay for inhibitors of c-Jun N-Terminal Kinase 3 (JNK3). [Related pubchem assays: 746 ]
Sequence of Mitogen-activated protein kinase 10 (P53779 whole entry): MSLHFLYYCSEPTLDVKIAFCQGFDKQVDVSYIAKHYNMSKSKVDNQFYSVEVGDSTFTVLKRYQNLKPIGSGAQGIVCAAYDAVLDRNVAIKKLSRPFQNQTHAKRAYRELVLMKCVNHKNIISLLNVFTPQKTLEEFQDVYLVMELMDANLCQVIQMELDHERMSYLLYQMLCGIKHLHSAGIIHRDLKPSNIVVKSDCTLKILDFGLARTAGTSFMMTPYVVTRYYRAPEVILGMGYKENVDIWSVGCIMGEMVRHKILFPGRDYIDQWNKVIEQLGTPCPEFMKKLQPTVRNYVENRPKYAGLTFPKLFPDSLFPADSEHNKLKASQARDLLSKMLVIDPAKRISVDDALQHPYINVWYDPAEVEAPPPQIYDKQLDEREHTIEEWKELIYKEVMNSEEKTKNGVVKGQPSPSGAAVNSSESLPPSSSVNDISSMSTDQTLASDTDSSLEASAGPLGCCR

[6] = target: E3 ubiquitin-protein ligase Mdm2 (Homo sapiens, UniProt Q00987); experiment: MDM2-luc reporter signal enhancers, multi-concentration potency testing, MDM2 ubiquitin-protein ligase inhibitor program, whole-cell format, luminescence detection, 384-well microplate (AID 1394); format: functional;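 further: MDM2 E3 inhibitors raise luminescence so EC50 is for signal enhancement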
Sequence of E3 ubiquitin-protein ligase Mdm2 (Q00987 whole entry): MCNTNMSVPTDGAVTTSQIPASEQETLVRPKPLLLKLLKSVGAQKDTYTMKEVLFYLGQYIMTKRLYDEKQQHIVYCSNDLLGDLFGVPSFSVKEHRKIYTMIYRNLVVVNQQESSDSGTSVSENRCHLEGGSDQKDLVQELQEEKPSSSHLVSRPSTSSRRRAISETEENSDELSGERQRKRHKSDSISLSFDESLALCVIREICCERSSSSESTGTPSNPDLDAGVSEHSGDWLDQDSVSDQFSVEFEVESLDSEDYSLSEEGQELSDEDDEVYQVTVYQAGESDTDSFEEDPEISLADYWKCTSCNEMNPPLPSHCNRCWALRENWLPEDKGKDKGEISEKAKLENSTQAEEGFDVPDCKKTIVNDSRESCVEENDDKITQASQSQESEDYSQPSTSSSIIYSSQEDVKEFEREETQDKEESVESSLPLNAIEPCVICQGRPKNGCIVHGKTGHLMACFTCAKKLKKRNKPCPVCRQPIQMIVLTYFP

[7] = target: T1, High affinity choline transporter 1 (Homo sapiens, UniProt Q9GZV3); experiment: human choline transporter blockers, potency – cell-based, 10-point CRC, membrane potential dye, dose response (AID 588401); format: functional;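 further: membrane potential dye fluorescence of choline-evoked depolarization via CHT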
T1 sequence (Q9GZV3 whole entry): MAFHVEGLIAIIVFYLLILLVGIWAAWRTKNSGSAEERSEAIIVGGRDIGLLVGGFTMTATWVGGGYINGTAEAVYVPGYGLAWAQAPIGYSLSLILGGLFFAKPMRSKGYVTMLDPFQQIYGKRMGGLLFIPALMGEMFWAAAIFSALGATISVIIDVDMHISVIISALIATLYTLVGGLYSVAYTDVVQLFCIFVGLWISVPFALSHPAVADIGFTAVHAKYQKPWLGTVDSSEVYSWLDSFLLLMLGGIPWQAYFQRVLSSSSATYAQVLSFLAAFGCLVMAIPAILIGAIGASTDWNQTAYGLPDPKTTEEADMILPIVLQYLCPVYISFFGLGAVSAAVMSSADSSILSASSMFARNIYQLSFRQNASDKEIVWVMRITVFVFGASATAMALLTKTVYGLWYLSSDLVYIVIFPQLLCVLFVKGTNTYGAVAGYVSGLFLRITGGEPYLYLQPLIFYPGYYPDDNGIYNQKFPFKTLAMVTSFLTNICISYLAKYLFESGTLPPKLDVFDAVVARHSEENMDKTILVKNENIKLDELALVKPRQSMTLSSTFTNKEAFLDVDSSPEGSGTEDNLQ

[8] = target: T1, High affinity choline transporter 1; experiment: human choline transporter blockers, potency – cell-based, 5-point CRC, membrane potential dye, dose response (AID 504840); format: functional
[9] = target: Matrix metalloproteinase-14 (Homo sapiens, UniProt P50281); experiment: Dose Response confirmation of uHTS hits for a small molecule inhibitors of MT1-MMP activation in a fluorescence assay set 2.; format: functional
Nonstructural protein 1 = Nonstructural protein 1 (Influenza A virus, UniProt Q194T2); format: functional, Influenza A virus (A/California/07/2009(H1N1))
Sequence of Nonstructural protein 1 (Q194T2 whole entry): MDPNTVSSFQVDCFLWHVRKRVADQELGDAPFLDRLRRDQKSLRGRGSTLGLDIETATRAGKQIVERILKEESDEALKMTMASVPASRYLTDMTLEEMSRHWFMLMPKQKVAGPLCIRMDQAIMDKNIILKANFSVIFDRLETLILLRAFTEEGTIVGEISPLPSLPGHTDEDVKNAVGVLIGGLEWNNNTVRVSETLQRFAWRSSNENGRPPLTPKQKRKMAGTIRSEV

fMet-Leu-Phe receptor = fMet-Leu-Phe receptor (Homo sapiens, UniProt P21462); experiment: formyl peptide receptor binders – dose response (AID 519); format: functional
Sequence of fMet-Leu-Phe receptor (P21462 whole entry): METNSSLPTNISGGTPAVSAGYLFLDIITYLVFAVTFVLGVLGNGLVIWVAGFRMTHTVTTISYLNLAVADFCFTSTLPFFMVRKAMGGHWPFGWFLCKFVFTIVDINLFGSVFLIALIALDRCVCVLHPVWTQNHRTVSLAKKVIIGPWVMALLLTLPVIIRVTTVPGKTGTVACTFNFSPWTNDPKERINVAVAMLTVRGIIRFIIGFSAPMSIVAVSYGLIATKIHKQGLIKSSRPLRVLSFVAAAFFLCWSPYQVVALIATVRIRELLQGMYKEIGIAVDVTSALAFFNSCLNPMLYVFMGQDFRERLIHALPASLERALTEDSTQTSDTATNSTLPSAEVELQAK

[10] = blockers of CRF-binding protein–CRF-R2 complex – cell-based, uHTS hits, 384-well, dose response (AID 651639); format: functional, Homo sapiens; settings: read-out: IC50_Mean
Caspase-6 = Caspase-6 (Homo sapiens, UniProt P55212); experiment: inhibition of CASP6 peptide cleavage – biochemical, VEID-R110 fluorescence, cherry-pick, dose response (AID 720632)
Sequence of Caspase-6 (P55212 24-179 limits assumed): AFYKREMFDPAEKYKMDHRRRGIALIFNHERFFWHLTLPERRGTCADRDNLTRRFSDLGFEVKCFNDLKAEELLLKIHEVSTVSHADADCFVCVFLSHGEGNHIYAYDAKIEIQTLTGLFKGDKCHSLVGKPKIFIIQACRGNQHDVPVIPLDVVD
Sequence of Caspase-6 (P55212 194-293 limits assumed): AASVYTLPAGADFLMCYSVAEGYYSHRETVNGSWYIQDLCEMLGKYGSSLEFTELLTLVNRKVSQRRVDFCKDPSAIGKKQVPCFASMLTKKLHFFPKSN

[11] = target: T2, Corticotropin-releasing factor receptor 2/Corticotropin-releasing factor-binding protein (Homo sapiens, UniProt P24387+Q13324); experiment: activators of CRF receptor 2 with binding protein – uHTS hits, confirmation (AID 602473); format: functional; settings: read-out: EC50_Mean
T2 sequence (Q13324 whole entry): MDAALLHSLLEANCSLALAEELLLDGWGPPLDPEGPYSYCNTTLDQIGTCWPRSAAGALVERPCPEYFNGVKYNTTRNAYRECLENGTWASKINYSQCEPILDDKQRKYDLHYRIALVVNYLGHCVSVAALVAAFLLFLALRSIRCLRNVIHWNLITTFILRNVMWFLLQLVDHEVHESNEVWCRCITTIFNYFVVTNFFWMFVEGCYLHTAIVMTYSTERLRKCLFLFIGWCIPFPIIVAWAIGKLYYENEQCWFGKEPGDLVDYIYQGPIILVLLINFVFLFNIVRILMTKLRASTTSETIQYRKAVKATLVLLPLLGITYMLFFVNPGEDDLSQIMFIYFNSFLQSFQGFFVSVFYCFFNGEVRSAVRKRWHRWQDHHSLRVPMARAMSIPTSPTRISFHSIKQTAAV
T2 sequence (P24387 whole entry): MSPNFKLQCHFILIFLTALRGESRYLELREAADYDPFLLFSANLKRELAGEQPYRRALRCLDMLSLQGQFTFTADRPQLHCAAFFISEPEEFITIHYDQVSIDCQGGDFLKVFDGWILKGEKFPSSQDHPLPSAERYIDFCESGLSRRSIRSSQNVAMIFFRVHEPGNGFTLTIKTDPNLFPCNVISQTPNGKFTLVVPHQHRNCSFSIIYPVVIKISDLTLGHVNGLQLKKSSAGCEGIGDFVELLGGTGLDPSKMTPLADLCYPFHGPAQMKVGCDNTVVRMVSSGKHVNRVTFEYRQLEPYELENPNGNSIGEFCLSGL

[12] = target: Photoreceptor-specific nuclear receptor (Homo sapiens, UniProt Q9Y5X4); format: functional, cell-based;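 further: CHO-S cells with Gal4-NCOR and VP16-NR2E3 two-hybrid luciferase reporter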
Sequence of Photoreceptor-specific nuclear receptor (Q9Y5X4 whole entry, the tested form may be a part): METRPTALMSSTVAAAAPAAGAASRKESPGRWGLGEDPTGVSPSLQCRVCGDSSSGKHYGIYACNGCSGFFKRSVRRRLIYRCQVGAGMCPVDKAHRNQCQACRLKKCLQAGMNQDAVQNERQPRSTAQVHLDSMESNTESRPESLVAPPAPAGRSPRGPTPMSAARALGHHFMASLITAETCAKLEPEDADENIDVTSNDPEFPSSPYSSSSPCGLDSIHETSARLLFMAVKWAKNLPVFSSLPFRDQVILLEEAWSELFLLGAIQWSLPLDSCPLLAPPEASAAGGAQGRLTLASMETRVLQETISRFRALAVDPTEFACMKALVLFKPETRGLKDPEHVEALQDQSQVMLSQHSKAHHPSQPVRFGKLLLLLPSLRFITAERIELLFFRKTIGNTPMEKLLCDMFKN

[13] = target: T2, Corticotropin-releasing factor receptor 2/Corticotropin-releasing factor-binding protein; experiment: Dose Response confirmation of uHTS hits for small molecule antagonists of the CRF-binding protein and CRF-R2 receptor complex.; format: functional; settings: read-out: IC50_Mean
HeLa = experiment: viability loss in HeLa cells – cell-based, ATP luminescence, cherry-pick samples, cytotoxicity control, dose response (AID 687004); format: functional; settings: Homo sapiens
[14] = OVCAR8 cell viability loss – plate reader, dry powder samples, PAX8 project, dose response (AID 743197); format: functional, cell-based; settings: OVCAR-8
[15] = OVCAR4 cell viability loss – plate reader, dry powder, SA11, cytotoxicity control for PAX8 inhibitor project, dose response (AID 743150); format: functional, cell-based; settings: OVCAR-4
Paired box protein Pax-8 = Paired box protein Pax-8 (Homo sapiens, UniProt Q06710); experiment: PAX8 transcriptional activity inhibition in RMG-I – RMG-I cells, luciferase, cherry-pick, dose response (AID 687027); format: functional, cell-based;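 further: luciferase reporter driven by Pax8 target thyroperoxidase promoter measured by SteadyGlo luminescence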
Sequence of Paired box protein Pax-8 (Q06710 whole entry): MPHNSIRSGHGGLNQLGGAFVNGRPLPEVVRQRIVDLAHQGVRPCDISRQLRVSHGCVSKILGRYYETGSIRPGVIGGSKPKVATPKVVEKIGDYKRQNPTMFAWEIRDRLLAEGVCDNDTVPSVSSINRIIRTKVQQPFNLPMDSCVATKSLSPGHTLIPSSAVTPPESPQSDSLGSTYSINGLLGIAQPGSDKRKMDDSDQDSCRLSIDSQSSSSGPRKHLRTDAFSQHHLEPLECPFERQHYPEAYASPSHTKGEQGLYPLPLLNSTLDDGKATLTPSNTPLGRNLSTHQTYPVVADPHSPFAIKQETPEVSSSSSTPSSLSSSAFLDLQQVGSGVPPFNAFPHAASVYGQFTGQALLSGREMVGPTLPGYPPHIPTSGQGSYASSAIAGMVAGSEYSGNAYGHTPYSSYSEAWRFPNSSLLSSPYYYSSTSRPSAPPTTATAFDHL

[16] = A2780 cell killing – plate reader, dry powder samples, cytotoxicity control, dose response (AID 743046); format: functional, cell-based
[17] = reduced cellular PGC1a acetyl-lysine signal – cell-based, cherry-picked samples, dose response (AID 720514); format: functional;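 further: potency may reflect raised or lowered acetylation signal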
[18] = general cell-killing toxicity readout – plate reader, dry powder samples, cytotoxicity control for PAX8 inhibitor project, dose response (AID 743021); format: functional, cell-based
[19] = toxicity toward immortalized ovarian surface epithelium – cell-based, plate reader, dry powder samples, cytotoxicity control for PAX8 inhibitor project, dose response (AID 743045); format: functional
[20] = PAX8-dependent cell viability loss – plate reader, dry powder, dose response (AID 743049); format: functional, cell-based
[21] = OV-90 cell viability loss – plate reader, dry powder, SA8, PAX8 inhibitor project, dose response (AID 743149); format: functional, cell-based
[22] = IGROV1 cell killing – plate reader, dry powder samples, PAX8 inhibitor project, dose response (AID 743043); format: functional, cell-based; settings: IGROV-1
[23] = COV434 cell viability loss – plate reader, dry powder, SA7, cytotoxicity control for PAX8 inhibitor project, dose response (AID 743145); format: functional, cell-based
[24] = COV362 cell viability loss – plate reader, dry powder, SA12, cytotoxicity control for PAX8 inhibitor project, dose response (AID 743144); format: functional, cell-based
[25] = OVCAR-3 cell viability loss – plate reader, dry powder samples, PAX8 inhibitor project, dose response (AID 743044); format: functional, cell-based

Cc1nccc(O)c1OCc1ccc(Cl)cc1
IC50 [1]: > 83.3 µM (inactive)
IC50 [2]: > 109 µM (inactive)

Cc1nc(Nc2ccc(C(=O)O)cc2)nc(Nc2ccc(C(=O)O)cc2)c1[N+](=O)[O-]
IC50 [3]: 211 µM (active)

O=C(Nc1ccc(F)cc1)c1sc(-c2ccccc2)nc1C(F)(F)F
IC50 [4]: > 30 µM (not active)

CC(=O)Oc1ccc(C(=O)Nc2nccs2)cc1
IC50 [5]: > 31 µM (not active)

CCOC(=O)c1sc(=S)n(-c2ccccc2)c1N(C(C)=O)C(C)=O
EC50 [6]: 0.29 µM (not active)
IC50 [7]: 5.01 µM (active)
IC50 [8]: 8.98 µM (active)

CCN1C(=O)/C(=C2\C=Cc3ccccc3N2CC)SC1=S
IC50 [9]: > 80 µM (inactive)
IC50 (Nonstructural protein 1): 4.15 µM (active)

C=CCn1c(O)cc(=O)nc1SCCCC
Ki (fMet-Leu-Phe receptor): 30.3 µM (inactive)

CC(C)c1ccc(C(c2c(O)oc3ccccc3c2=O)c2c(O)oc3ccccc3c2=O)cc1
IC50 [10]: 5.18 µM (active)
AC50 (Caspase-6): 6.05 µM (active)
EC50 [11]: > 53 µM (inactive)
IC50 [12]: 0.975 µM (active)
IC50 [13]: 3.45 µM (active)

CC(C)NC(=O)Nc1ccc2c(c1)CC(=O)N([C@H](C)CO)C[C@H](C)[C@H](CN(C)S(=O)(=O)c1ccc(Cl)cc1)O2
AC50 (HeLa): 37.9 µM (active)

CN(C[C@H]1N[C@@H](CO)[C@@H]1c1ccc(C2=CCCC2)cc1)C(=O)c1cccc(F)c1
AC50 [14]: 3.4 µM (active)
AC50 [15]: 1.37 µM (active)
AC50 (Paired box protein Pax-8): 2.47 µM (active)
AC50 [16]: 11.3 µM (active)
AC50 [17]: 0.298 µM (active)
AC50 [18]: 26 µM (active)
AC50 [19]: 3.44 µM (active)
AC50 [20]: 3.86 µM (active)
AC50 [21]: 7.38 µM (active)
AC50 [22]: 6.12 µM (active)
AC50 [23]: 6.6 µM (active)
AC50 [24]: 3.98 µM (active)
AC50 [25]: 4.55 µM (active)
